The values that follow come from patent EP1076064A1, “NOVEL ASPARTAME DERIVATIVE CRYSTAL AND PROCESS FOR PRODUCING THE SAME” (Ajinomoto Co., Inc., priority 1998, dated 1999).

The structures appear in SMILES notation.

Data set [1] is described as follows: Measurement of the dissolution rate for the dried crystals (dissolution tester). The data set is classed as physicochemical. Conditions: 0.5 g crystals in 900 ml ion exchanged water kept at 20 °C, stirring 100 rpm. How it is done:
The dissolution rates of the A-type crystals (Reference Example 4 (b)) and the D-type crystals (Example 1) were determined in the following method. The apparatus used was "DISSOLUTION TESTER" (NTR-6100) manufactured by Toyama Sangyo K. K. 0.5 g each of the A-type crystals and D-type crystals were introduced into 900 ml ion exchanged water kept at 20 °C at a stirring in the number of revolution of 100 rpm, and the time which elapsed until the crystals came to be completely dissolved was measured.

For data set [2] the following is noted: cited from earlier work.

Take `COC(=O)[C@H](Cc1ccccc1)NC(=O)[C@H](CC(=O)O)NCCC(C)(C)C` [D-type crystals, N-[N-(3,3-dimethylbutyl)-L-α-aspartyl]-L-phenylalanine methyl ester]: the “time which elapsed until the crystals came to be completely dissolved” value in data set [1] was “about 5 minutes”. In the case of `COC(=O)[C@H](Cc1ccccc1)NC(=O)[C@H](CC(=O)O)NCCC(C)(C)C` [N-(3,3-dimethylbutyl)-APM, N-[N-(3,3-dimethylbutyl)-L-α-aspartyl]-L-phenylalanine methyl ester], the “efficacy of sweetness relative to Aspartame” value in data set [2] (in weight ratio, versus Aspartame) was “at least 50 times”. Also, in data set [2] (versus sucrose (table sugar)), the “efficacy of sweetness relative to sucrose (table sugar)” value is given as “about 10,000 times”. Take `COC(=O)[C@H](Cc1ccccc1)NC(=O)[C@H](CC(=O)O)NCCC(C)(C)C` [A-type crystals, N-[N-(3,3-dimethylbutyl)-L-α-aspartyl]-L-phenylalanine methyl ester, reference compound]: the “time which elapsed until the crystals came to be completely dissolved” value in data set [1] was “about 35 minutes”.
